{
  "source": "patent US11857566B2",
  "about": "“Sulfonated polystyrene derivative for use in the treatment and/or prophylaxis of cat flu” (UNIWERSYTET JAGIELLONSKI, priority 2018, dated 2024)",
  "origin": "cited, not measured here",
  "key": {"[1]": {"details": "in vivo"}},
  "data": [
    {"smiles": "OC(c1cc(C(F)(F)F)nc2c(C(F)(F)F)cccc12)C1CCCCN1", "note": "(stereo not drawn) [mefloquine]", "values": [
      {"measurement": "in vitro antiviral activity against FCV", "setting": "FCV", "value": "very high in vitro antiviral activity"}
    ]},
    {"smiles": "[Cl-].[Li+]", "note": "[lithium chloride]", "values": [
      {"measurement": "in vitro antiviral activity against FCV", "setting": "FCV", "value": "very high in vitro antiviral activity"}
    ]},
    {"smiles": "CC(C)[C@H](N)C(=O)OCCOCn1cnc2c(=O)[nH]c(N)nc21", "note": "[VCV, Valaciclovir]", "values": [
      {"measurement": "symptoms of the disease in cats who took the drug", "setting": "FHV; in vivo", "value": "did not improve symptoms of the disease"},
      {"measurement": "adverse effects in cats", "setting": "[1]", "value": "many adverse effects, such as bone marrow suppression or liver and kidney necrosis leading to animal death"}
    ]},
    {"smiles": "NC(=O)c1ncn([C@@H]2O[C@H](CO)[C@@H](O)[C@H]2O)n1", "note": "[ribavirin]", "values": [
      {"measurement": "in vitro antiviral activity against FCV", "setting": "FCV", "value": "inhibits FCV infection in vitro"}
    ]},
    {"smiles": "CC(=O)OCC(CCn1cnc2cnc(N)nc21)COC(C)=O", "note": "[famciclovir]", "values": [
      {"measurement": "safety in treatment and prophylaxis of FHV infection in cats", "setting": "[1]", "value": "has been shown to be safe"}
    ]},
    {"smiles": "Nc1nc2c(ncn2COCCO)c(=O)[nH]1", "note": "[acyclovir]", "values": [
      {"measurement": "bioavailability in cats", "setting": "in vivo", "value": "low"},
      {"measurement": "activity in cats", "setting": "FHV; compared with HSV-1 in humans", "value": "did not show equally high activity"}
    ]},
    {"smiles": "Nc1nc2c(ncn2CCC(CO)CO)c(=O)[nH]1", "note": "[PCV, penciclovir]", "values": [
      {"measurement": "concentration of PCV in cats", "setting": "after famciclovir", "value": "much lower than expected"}
    ]}
  ]
}
